Laboratory results taken from ChEMBL document CHEMBL4354860, “Targeting the Regulatory Site of ER Aminopeptidase 1 Leads to the Discovery of a Natural Product Modulator of Antigen Presentation” (J Med Chem, 2020).

Biological target: Endoplasmic reticulum aminopeptidase 2 (Homo sapiens, UniProt Q6P179)
Experiment: Activation of ERAP2 (unknown origin)-mediated Arg-AMC substrate hydrolysis after 60 mins by Rapidfire-MS analysis

Endoplasmic reticulum aminopeptidase 2, sequence (Q6P179 whole entry): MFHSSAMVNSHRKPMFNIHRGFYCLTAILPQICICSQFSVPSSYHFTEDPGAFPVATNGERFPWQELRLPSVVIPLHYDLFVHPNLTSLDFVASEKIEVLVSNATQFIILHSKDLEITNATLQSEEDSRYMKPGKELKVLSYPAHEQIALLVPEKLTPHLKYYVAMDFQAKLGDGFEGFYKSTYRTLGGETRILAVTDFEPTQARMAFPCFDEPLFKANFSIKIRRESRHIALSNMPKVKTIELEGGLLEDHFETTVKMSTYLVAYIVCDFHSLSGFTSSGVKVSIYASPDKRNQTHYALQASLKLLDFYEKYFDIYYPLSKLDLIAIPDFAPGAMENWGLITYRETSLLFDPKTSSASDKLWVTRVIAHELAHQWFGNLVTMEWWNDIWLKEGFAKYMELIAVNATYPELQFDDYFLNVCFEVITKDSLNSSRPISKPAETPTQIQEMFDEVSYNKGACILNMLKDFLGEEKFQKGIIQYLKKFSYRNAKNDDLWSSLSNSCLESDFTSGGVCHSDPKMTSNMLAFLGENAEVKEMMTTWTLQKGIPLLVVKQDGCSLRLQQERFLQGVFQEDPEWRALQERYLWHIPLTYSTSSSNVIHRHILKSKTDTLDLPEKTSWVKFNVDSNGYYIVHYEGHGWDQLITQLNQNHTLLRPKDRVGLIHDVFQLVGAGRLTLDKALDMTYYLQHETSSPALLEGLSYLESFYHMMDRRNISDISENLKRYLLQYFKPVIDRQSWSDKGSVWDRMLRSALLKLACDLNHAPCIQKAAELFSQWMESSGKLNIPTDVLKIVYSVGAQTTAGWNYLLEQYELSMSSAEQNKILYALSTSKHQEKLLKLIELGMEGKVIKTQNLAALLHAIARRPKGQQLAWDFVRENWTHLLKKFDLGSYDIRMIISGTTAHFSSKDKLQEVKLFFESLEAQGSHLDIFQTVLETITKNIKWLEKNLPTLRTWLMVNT

C[C@@H]1C[C@H](O)[C@@]2(C)C(C(=O)O)=CCC[C@@H]2[C@@]1(C)CCc1ccoc1
IC50: > 158 µM
